Laboratory results reported in patent publication US10150758B2, “PRMT5 inhibitors and uses thereof” (Epizyme, Inc., priority 2012, dated 2018).
pIC50: −log10 of the molar value.

The compounds below were run against PRMT5/MEP50 (Homo sapiens (Human), UniProt O14744) (assay: PRMT5 Biochemical Assay (PRMT5/MEP50 enzyme assay on peptide substrate, 3H-SAM Flashplate)). Settings: PRMT5/MEP50 4 nM, 3H-SAM 75 nM, peptide 40 nM.
PRMT5/MEP50, sequence (O14744 other isoform, or with tags, fused parts or gaps): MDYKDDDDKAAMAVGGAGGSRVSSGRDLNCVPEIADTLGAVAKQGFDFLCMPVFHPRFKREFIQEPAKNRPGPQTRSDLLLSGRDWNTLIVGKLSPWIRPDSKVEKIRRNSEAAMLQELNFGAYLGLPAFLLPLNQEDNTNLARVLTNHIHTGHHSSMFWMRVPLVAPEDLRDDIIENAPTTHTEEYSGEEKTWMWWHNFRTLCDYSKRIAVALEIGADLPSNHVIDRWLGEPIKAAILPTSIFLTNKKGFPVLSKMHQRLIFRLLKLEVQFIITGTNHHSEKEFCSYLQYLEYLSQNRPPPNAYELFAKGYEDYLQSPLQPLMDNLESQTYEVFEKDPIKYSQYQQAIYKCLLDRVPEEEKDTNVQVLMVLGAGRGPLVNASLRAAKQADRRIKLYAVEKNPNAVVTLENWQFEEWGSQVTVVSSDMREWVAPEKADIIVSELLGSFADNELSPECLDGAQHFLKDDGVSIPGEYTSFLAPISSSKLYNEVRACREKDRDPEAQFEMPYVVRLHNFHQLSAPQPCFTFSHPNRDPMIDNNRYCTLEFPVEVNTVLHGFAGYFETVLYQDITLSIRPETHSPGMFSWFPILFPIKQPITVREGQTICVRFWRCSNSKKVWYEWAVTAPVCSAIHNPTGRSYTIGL
PRMT5/MEP50, sequence (Q9BQA1 other isoform, or with tags, fused parts or gaps partner): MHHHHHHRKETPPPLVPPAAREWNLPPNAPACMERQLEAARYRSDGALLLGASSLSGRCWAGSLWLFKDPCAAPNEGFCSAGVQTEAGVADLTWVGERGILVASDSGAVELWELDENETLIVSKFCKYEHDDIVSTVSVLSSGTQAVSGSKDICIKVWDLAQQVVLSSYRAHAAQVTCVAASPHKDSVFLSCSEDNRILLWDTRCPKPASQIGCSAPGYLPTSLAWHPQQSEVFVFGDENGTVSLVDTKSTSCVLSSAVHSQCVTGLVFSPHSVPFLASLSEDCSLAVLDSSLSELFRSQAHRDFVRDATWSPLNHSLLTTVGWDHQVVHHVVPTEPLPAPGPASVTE
Source text: S-adenosylmethionine (SAM), S-adenosylhomocysteine (SAH), bicine, KCl, Tween20, dimethylsulfoxide (DMSO), bovine skin gelatin (BSG), and Tris(2-carboxyethyl)phosphine hydrochloride solution (TCEP) were purchased from Sigma-Aldrich at the highest level of purity possible. ^3H-SAM was purchase from American Radiolabeled Chemicals with a specific activity of 80 Ci/mmol. 384-well streptavidin Flashplates were purchased from PerkinElmer.
Peptide representative of human histone H4 residues 1-15 was synthesized with a C-terminal linker-affinity tag motif and a C-terminal amide cap by 21st Century Biochemicals. The peptide was high high-perfomance liquid chromatography (HPLC) purified to greater than 95% purity and confirmed by liquid chromatography mass spectrometry (LC-MS). The sequence was Ac-[…][K-Biot]-amide (SEQ ID NO.:3).
Full-length human PRMT5 (NM_006109.3) transcript variant 1 clone was amplified from a fetal brain cDNA library, incorporating flanking 5′ sequence encoding a FLAG tag ([…]) (SEQ ID NO.:4) fused directly to Ala 2 of PRMT5. Full-length human MEP50 (NM_024102) clone was amplified from a human testis cDNA library incorporating a 5′ sequence encoding a 6-histidine tag (MHHHHHH) (SEQ ID NO.:5) fused directly to Arg 2 of MEP50. The amplified genes were sublconed into pENTR/D/TEV (Life Technologies) and subsequently transferred by Gateway™ attL×attR recombination to pDEST8 baculvirus expression vector (Life Technologies).
Recombinant baculovirus and Baculovirus-Infected Insect Cells (BIIC) were generated according to Bac-to-Bac kit instructions (Life Technologies) and Wasilko, 2006, respectively. Protein over-expression was accomplished by infecting exponentially growing Spodoptera frugiperda (SF9) cell culture at 1.2×10^6 cell/ml with a 5000 fold dilution of BIIC stock. Infections were carried out at 27° C. for 72 hours, harvested by centrifugation, and stored at −80° C. for purification.
Flag-PRMT5/6His-MeP50 was eluted with 300 mM Imidazole in the same buffer. The purity of recovered protein was 87%. Reference: Wasilko, D. J. and S. E. Lee: “TIPS: titerless infected-cells preservation and scale-up” Bioprocess J., 5 (2006), pp. 29-32.
General Procedure for PRMT5/MEP50 Enzyme Assays on Peptide Substrates.
The assays were all performed in a buffer consisting of 20 mM Bicine (pH=7.6), 1 mM TCEP, 0.005% BSG, and 0.002% Tween20, prepared on the day of use. Compounds in 100% DMSO (1 ul) were spotted into a polypropylene 384-well V-bottom plates (Greiner) using a Platemate Plus outfitted with a 384-channel head (Thermo Scientific). DMSO (1 ul) was added to Columns 11, 12, 23, 24, rows A-H for the maximum signal control and 1 ul of SAH, a known product and inhibitor of PRMT5/MEP50, was added to columns 11, 12, 23, 24, rows I-P for the minimum signal control. A cocktail (40 ul) containing the PRMT5/MEP50 enzyme and the peptide was added by Multidrop Combi (Thermo-Fisher). The compounds were allowed to incubate with PRMT5/MEP50 for 30 min at 25 degrees Celsius, then a cocktail (10 ul) containing ^3H-SAM was added to initiate the reaction (final volume=51 ul). The final concentrations of the components were as follows: PRMT5/MEP50 was 4 nM, ^3H-SAM was 75 nM, peptide was 40 nM, SAH in the minimum signal control wells was 100 uM, and the DMSO concentration was 1%. The assays were stopped by the addition of non-radioactive SAM (10 ul) to a final concentration of 600 uM, which dilutes the ^3H-SAM to a level where its incorporation into the peptide substrate is no longer detectable. 50 ul of the reaction in the 384-well polypropylene plate was then transferred to a 384-well Flashplate and the biotinylated peptides were allowed to bind to the streptavidin surface for at least 1 hour before being washed three times with 0.1% Tween20 in a Biotek ELx405 plate washer. […]
Compound `O=C1CN(c2cccc(F)c2)CCN1CC(O)CN1CCc2ccccc2C1` (centres unmarked) [Compound 6] has a pIC50 greater than 7.00.
For `Cc1ccc(N2CCN(CC(O)CN3CCc4ccccc4C3)C(=O)C2)cc1` (centres unmarked) [Compound 15, 1-(3-(3,4-dihydroisoquinolin-2(1H)-yl)-2-hydroxypropyl)-4-(p-tolyl)piperazin-2-one], the pIC50 was 6.00 to 7.00.
In the case of `CN(C)c1ccccc1N1CCN(C[C@H](O)CN2CCc3ccccc3C2)C(=O)C1` [Compound 29], the pIC50 was 6.00 to 7.00.
Compound `O=C1COc2ccccc2N1CC(O)CN1CCc2ccccc2C1` (centres unmarked) [Compound 31, 4-(3-(3,4-dihydroisoquinolin-2(1H)-yl)-2-hydroxypropyl)-2H-benzo[b][1,4]oxazin-3(4H)-one] has a pIC50 of 6.00 to 7.00.
In the case of `O=C1CN(c2cncc(N3CCOCC3)c2)CCN1CC(O)CN1CCc2ccccc2C1` (centres unmarked) [Compound 8, 1-(3-(3,4-dihydroisoquinolin-2(1H)-yl)-2-hydroxypropyl)-4-(5-morpholinopyridin-3-yl)piperazin-2-one], the pIC50 was greater than 7.00.
`O=C1CN(c2ccc(Cl)cc2)CCN1CC(O)CN1CCc2ccccc2C1` (centres unmarked) [Compound 7, 4-(4-chlorophenyl)-1-(3-(3,4-dihydroisoquinolin-2(1H)-yl)-2-hydroxypropyl)piperazin-2-one] was tested, and the pIC50 was greater than 7.00.
With `O=C1CN(c2cccc3cccnc23)CCN1CC(O)CN1CCc2ccccc2C1` (centres unmarked) [Compound 4, 1-(3-(3,4-dihydroisoquinolin-2(1H)-yl)-2-hydroxypropyl)-4-(quinolin-8-yl)piperazin-2-one] the pIC50 was greater than 7.00.
In the case of `O=C1CN(c2cccc(N3CCOCC3)c2)CCN1CC(O)CN1CCc2ccccc2C1` (centres unmarked) [Compound 12, 1-(3-(3,4-dihydroisoquinolin-2(1H)-yl)-2-hydroxypropyl)-4-(3-morpholinophenyl)piperazin-2-one], the pIC50 was greater than 7.00.
`O=C1CN(c2ccccc2Cl)CCN1CC(O)CN1CCc2ccccc2C1` (centres unmarked) [Compound 9] showed a pIC50 of 6.00 to 7.00.
With `O=c1cc(Nc2ccccc2)ccn1C[C@H](O)CN1CCc2ccccc2C1` [Compound 19, (R)-1-(3-(3,4-dihydroisoquinolin-2(1H)-yl)-2-hydroxypropyl)-4-(phenylamino)pyridin-2(1H)-one] the pIC50 was 6.00 to 7.00.
For `O=C1Cc2ccccc2N1CC(O)CN1CCc2ccccc2C1` (centres unmarked) [Compound 1, 1-(3-(3,4-dihydroisoquinolin-2(1H)-yl)-2-hydroxypropyl)indolin-2-one], the pIC50 was 6.00 to 7.00.
